According to ChEMBL document CHEMBL1201862, “PubChem BioAssay data set” (2004):
Activity calls are given as the source filed them.

What was measured:
[1] = target: T1, Cytochrome P450 1A2 (Homo sapiens, UniProt P05177);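 also: PubChem cytochrome P450 panel assay, CYP1A2 panel member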
T1 sequence (P05177 whole entry): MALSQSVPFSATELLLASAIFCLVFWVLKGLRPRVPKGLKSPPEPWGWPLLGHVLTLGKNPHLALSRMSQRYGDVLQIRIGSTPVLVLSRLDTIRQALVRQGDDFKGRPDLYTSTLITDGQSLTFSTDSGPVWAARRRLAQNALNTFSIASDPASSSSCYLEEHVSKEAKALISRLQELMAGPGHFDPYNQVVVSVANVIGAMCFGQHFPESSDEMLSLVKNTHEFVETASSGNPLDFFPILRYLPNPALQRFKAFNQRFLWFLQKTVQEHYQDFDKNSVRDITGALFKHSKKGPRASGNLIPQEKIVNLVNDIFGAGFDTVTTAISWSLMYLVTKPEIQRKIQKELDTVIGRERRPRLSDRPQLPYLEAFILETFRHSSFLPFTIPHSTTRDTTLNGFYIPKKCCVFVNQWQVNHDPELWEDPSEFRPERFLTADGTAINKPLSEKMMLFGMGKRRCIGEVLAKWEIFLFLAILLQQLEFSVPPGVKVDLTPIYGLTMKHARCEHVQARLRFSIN

[2] = target: T2, Heat shock factor protein 1 (Mus musculus, UniProt P38532); assay: decrease of HSF1-responsive luciferase luminescence – cell-based, NIH3T3, dose retest, confirmation (AID 2382); assay type: functional;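 also: NIH3T3 fibroblasts with HSF1-driven luciferase reporter stressed by proteasome inhibitor MG132; luminescence from HSF1-driven luciferase expression after 8 hours of MG132 stress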
T2 sequence (P38532 whole entry): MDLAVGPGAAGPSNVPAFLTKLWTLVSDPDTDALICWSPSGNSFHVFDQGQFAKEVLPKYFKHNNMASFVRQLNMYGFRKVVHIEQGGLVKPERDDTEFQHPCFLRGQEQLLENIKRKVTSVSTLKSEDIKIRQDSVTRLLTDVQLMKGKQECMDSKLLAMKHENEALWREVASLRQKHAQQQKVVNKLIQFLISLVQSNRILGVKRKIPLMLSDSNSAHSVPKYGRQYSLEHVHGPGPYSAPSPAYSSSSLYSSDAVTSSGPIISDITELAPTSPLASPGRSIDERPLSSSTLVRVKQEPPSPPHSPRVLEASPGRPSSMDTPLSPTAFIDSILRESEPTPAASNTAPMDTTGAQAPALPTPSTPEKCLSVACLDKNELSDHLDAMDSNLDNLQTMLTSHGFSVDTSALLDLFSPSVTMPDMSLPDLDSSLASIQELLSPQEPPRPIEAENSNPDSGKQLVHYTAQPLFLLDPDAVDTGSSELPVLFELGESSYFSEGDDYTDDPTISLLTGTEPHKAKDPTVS

[3] = target: Cytochrome P450 2C19 (Homo sapiens, UniProt P33261); assay: Cytochrome panel assay with activity outcomes. Panel member name: p450-cyp2c19 Compounds with AC50 equal or less than 10 uM are considered active; assay type: functional
Chain of Cytochrome P450 2C19 (P33261 whole entry): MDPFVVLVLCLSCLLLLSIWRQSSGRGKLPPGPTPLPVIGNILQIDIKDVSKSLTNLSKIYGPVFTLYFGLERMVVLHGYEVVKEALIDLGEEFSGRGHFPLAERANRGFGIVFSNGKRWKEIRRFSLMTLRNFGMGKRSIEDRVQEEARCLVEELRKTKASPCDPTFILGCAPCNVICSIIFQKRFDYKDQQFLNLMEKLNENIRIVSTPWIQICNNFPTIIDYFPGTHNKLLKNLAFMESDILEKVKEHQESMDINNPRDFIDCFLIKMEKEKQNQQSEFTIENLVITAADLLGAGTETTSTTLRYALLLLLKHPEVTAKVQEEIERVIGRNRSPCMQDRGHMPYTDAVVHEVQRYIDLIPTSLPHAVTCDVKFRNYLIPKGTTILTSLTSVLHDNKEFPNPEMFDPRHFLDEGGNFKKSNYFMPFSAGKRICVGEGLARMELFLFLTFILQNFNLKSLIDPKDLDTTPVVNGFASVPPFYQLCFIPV

[4] = Trypanosoma cruzi growth suppression in host cells – NIH3T3 host cells, beta-gal luminescence, confirmation (AID 2044); assay type: functional, cell-based;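 also: intracellular parasites grown in NIH/3T3 mouse fibroblasts as host cells; luminescent beta-galactosidase reporter signal from transgenic T. cruzi replicating inside host cells; inhibitors lower the luminescence signal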
[5] = NIH3T3 cell viability loss – ATP luminescence, mouse fibroblasts, counter-screen, dose response (AID 2010); assay type: functional, cell-based;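 also: cells exposed to compound for about 90 hours before reading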
[6] = viability of uninfected HEp-2 cells – cell-based, HTS, cytotoxicity control for RSV inhibitor project, dose response (AID 2410); assay type: functional; conditions: human respiratory syncytial virus
[7] = test system: Streptococcus; assay: GAS UMAA2166 growth inhibition – luminescence, BacTiterGlo, counter-screen for streptokinase expression inhibitor project, dose response (AID 1915); assay type: functional, organism-based;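 also: potency for reduction of bacterial viability or growth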
[8] = test system: Streptococcus sp. 'group A'; assay: Streptococcus pyogenes SK(-)GAS viability under kanamycin – luminescence, BacTiterGlo, confirmation, counter-screen for streptokinase expression inhibitor project, dose response (AID 1900); assay type: functional, organism-based

C/C(=N\OC(=O)c1ccc(F)cc1)c1nccs1
AC50 [1]: 28.2 µM (inconclusive)

O=C(CCCOc1ccccc1)Nc1nccs1
EC50 [2]: > 195 µM (not active)

Cc1ccc(C(=O)NNC(=O)C2CCCN(c3ncccn3)C2)cc1 (centres undefined)
AC50 ([3]; read-out: AC50): 39.8 µM (inconclusive)

Cc1ccc(-c2ccc(CCC(=O)O)n2CC2CCCO2)cc1 (centres undefined)
AC50 ([3]; read-out: AC50): 14.1 µM (inconclusive)

c1ccc(CCNc2nc(-c3ccncc3)cs2)cc1
EC50 [4]: 1.8 µM (active)
EC50 [5]: > 60 µM (not active)

COC(=O)CCC(=O)NNC(=O)c1cccc(Br)c1
EC50 [2]: > 195 µM (not active)

COc1ccc(C(=O)NC(=S)N2CCNC(=O)C2CC(=O)OC(C)C)cc1 (centres undefined)
EC50 [2]: > 195 µM (not active)

COC(=O)C1(C)C=C2C(=C(C)C(=O)C2C)CN1 (centres undefined)
AC50 [1]: 31.6 µM (inconclusive)

Cc1cccc(-n2c(=O)c3c(n4cnnc24)-c2ccccc2CC32CCCCC2)c1
AC50 [1]: 22.4 µM (inconclusive)

Fc1ccccc1N1CCN(Cc2cc(-c3ccccc3)on2)CC1
EC50 [2]: > 195 µM (not active)

O=[N+]([O-])c1nn(-c2ccc3c(c2)OCCO3)[n+]([O-])c1NC1CCN(Cc2ccccc2)CC1
EC50 [4]: 0.163 µM (active)
EC50 [5]: > 60 µM (not active)

C#C[C@@]1(O)CC[C@@H]2[C@@H]3CCC4=CC(=O)CC[C@@]4(C)[C@H]3CC[C@]21C
AC50 ([3]; read-out: AC50): 0.501 µM (inconclusive)

CCN(Cc1ccncc1)C(=O)c1cc(COc2ccc(C)c(C)c2)on1
EC50 [4]: 1.07 µM (active)
EC50 [5]: > 60 µM (not active)

Cc1ccc(SCCNC(=O)c2ccc(C)c(S(=O)(=O)Nc3ccccc3C)c2)cc1
AC50 [1]: 14.1 µM (inconclusive)

CCCCc1ccc(NC(S)=NCc2cccc(OC)c2)cc1
EC50 [4]: 3.51 µM (active)
EC50 [5]: > 60 µM (not active)

CNC(=O)/C(C#N)=C/c1ccc(-c2ccc(OC)cc2[N+](=O)[O-])o1
EC50 [2]: > 195 µM (not active)

COC(=O)c1ccc(OC)c(CN2CCCN(Cc3cc(C)ccc3C)S2(=O)=O)c1
EC50 [4]: 1.11 µM (active)
EC50 [5]: > 60 µM (not active)

CCCOc1ccc(N2C(=O)CC(SC(=N)N3N=C(c4ccccc4)CC3c3ccccc3)C2=O)cc1 (centres undefined)
EC50 [4]: 2.05 µM (active)
EC50 [5]: > 60 µM (not active)

Cn1cc(Cl)c(-c2nnc(S)n2-c2ccc(F)cc2)n1
EC50 [2]: > 195 µM (not active)

c1cc2c(cc1C1CCCN1)OCCCO2 (centres undefined)
EC50 [2]: > 195 µM (not active)

COc1cccc(-c2cc(NCc3cccs3)ncn2)c1
AC50 ([3]; read-out: AC50): 25.1 µM (inconclusive)

Cc1ccc2oc(-c3cccc(NC(=S)NC(=O)/C=C/c4ccco4)c3)nc2c1
AC50 [1]: 3.55 µM (inconclusive)

CCC1CCc2sc(C(=O)NCC(c3ccc(OC)cc3)N3CCCC3)cc2C1 (centres undefined)
EC50 [4]: 1.83 µM (active)
EC50 [5]: > 60 µM (not active)

CCN(c1ccccc1)S(=O)(=O)c1ccc(Cl)c(NC(=O)CN2CCCCCC2)c1
EC50 [4]: 1.04 µM (active)
EC50 [5]: > 60 µM (not active)

Cc1cccn2cc(-c3cccc(S(=O)(=O)N4CC(C)OC(C)C4)c3)nc12 (centres undefined)
CC50 [6]: 44.6 µM (active)

O=c1c(-c2ccc(F)cc2)nc2cnc(Nc3ccccc3)nc2n1Cc1cccs1
AC50 [1]: 2 µM (inconclusive)

Cc1c(Cl)ccc2c(C(=O)Nc3cc(C(C)(C)C)on3)cc(-c3ccccn3)nc12
EC50 [4]: 1.95 µM (active)
EC50 [5]: > 60 µM (not active)

COc1cccc(Cn2c(=O)c(-c3ccc(F)cc3)nc3cnc(N4CCOCC4)nc32)c1
AC50 [3]: inconclusive

CC(C)Oc1ccc(C(=O)O)cc1
EC50 [2]: 69.4 µM (active)

Brc1ccc2ncnc(Nc3cccc4ccccc34)c2c1
AC50 ([3]; read-out: AC50): 2.82 µM (inconclusive)

COc1cc(NC(=O)COC(=O)/C=C/c2c(C)nn(-c3ccc(F)cc3)c2Cl)cc(OC)c1
EC50 [4]: 0.691 µM (active)
EC50 [5]: > 60 µM (not active)

Fc1ccc(Cn2c(SCc3ccc(F)c(F)c3)nnc2C(F)(F)F)cc1
AC50 [1]: 17.8 µM (inconclusive)

O=C(NC(NC(=S)Nc1cc(Cl)ccc1Cl)C(Cl)(Cl)Cl)c1ccco1 (centres undefined)
AC50 [1]: 12.6 µM (inconclusive)

COc1ccc(NC(=S)N2CCN(C/C=C/c3ccccc3)CC2)cc1OC
AC50 [1]: 28.2 µM (inconclusive)
AC50 ([3]; read-out: AC50): 15.8 µM (inconclusive)

Cc1c(C(=O)NC(=S)NCc2cccnc2)oc2ccccc12
EC50 [4]: 1.93 µM (active)
EC50 [5]: > 60 µM (inconclusive)

SC(COCc1ccccc1)CN1CCN(Cc2ccc3c(c2)OCO3)CC1 (centres undefined)
EC50 [4]: 2.1 µM (active)
EC50 [5]: > 60 µM (not active)

CCOC(=O)N1CCN(C(=O)c2ccc3c(c2)NC(=O)/C(=C/c2ccccc2)S3)CC1
EC50 [7]: 4.42 µM (active)
EC50 [8]: 1.48 µM (active)

O=C(O)c1cccnc1SCC(=O)N1CCCCCC1
AC50 [3]: inconclusive

CSc1nc2ccc(NS(=O)(=O)c3ccc([N+](=O)[O-])cc3)cc2s1
EC50 [2]: > 195 µM (not active)

COc1ccc(CN(Cc2cccnc2)S(=O)(=O)c2ccc(-n3cnnn3)c(C)c2)cc1OC
EC50 [4]: 2.19 µM (active)
EC50 [5]: > 30 µM (not active)

CCOC(=O)c1cnc2ccccc2c1Nc1ccc2c(c1)OCCO2
EC50 [2]: 6 µM (active)

O=C(c1cc(Cl)ccc1Cl)N1CCOCC1
EC50 [2]: > 195 µM (not active)

O=c1c(-c2ccccc2)nc2cncnc2n1C1CC1
AC50 ([3]; read-out: AC50): 3.16 µM (inconclusive)

O=C(Nc1ccccc1)N1CCSc2cc(Cl)ccc21
AC50 [1]: 3.55 µM (inconclusive)

CCCC(C)n1nc(O)c2c1NC(=O)CSC2c1ccc(OC)c(OC)c1 (centres undefined)
EC50 [2]: > 195 µM (not active)

CN1CCC(OC(=O)c2ccccc2)CC1
EC50 [4]: 0.263 µM (active)
EC50 [5]: 58.6 µM (active)

COC(=O)c1ccc(/C=C/c2ccc3cccc(OC(C)=O)c3n2)cc1
EC50 [7]: 8.49 µM (active)
EC50 [8]: 2.08 µM (active)

Cc1ccc(S(=O)(=O)N(CC(=O)N2CCc3ccccc3C2)c2ccc(Cl)c(Cl)c2)cc1
EC50 [2]: > 195 µM (not active)

Cc1ccc(C(=O)C[n+]2cccc3cc(C)ccc32)cc1
EC50 [4]: 11.2 µM (active)
EC50 [5]: > 60 µM (inconclusive)

CC1CN(C(=O)COc2ncnc3ccccc23)CC(C)O1 (centres undefined)
AC50 ([3]; read-out: AC50): 39.8 µM (inconclusive)

C[C@@H](C(=O)OC1C[C@H]2CC[C@@H](C1)N2C)c1ccc(Br)cc1 (some centres undefined)
AC50 [1]: 39.8 µM (inconclusive)

CSc1nc(-c2ccc(C)cc2)nc(N)c1C#N
CC50 [6]: 49.6 µM (active)

O=C(c1ccc(Cn2c(=S)[nH]c3ccc(N4CCOCC4)cc3c2=O)cc1)N1CCN(c2ccc(F)cc2)CC1
EC50 [4]: 0.583 µM (active)
EC50 [5]: > 60 µM (not active)

Cc1ccc(C(C(=O)NCc2ccco2)N(C(=O)CNC(=O)c2cccs2)c2ccc(C)cc2)cc1 (centres undefined)
AC50 ([3]; read-out: AC50): 2.51 µM (inconclusive)

CCc1ccccc1NC(=O)NC1CC2CCC(C1)N2Cc1cccs1 (centres undefined)
AC50 ([3]; read-out: AC50): 17.8 µM (inconclusive)

C/C(=N/NC(N)=S)c1ccc(Br)s1
EC50 [4]: 2.07 µM (active)
EC50 [5]: > 60 µM (not active)

CCN(CC)CCCNC(=O)c1oc2ccc(S(=O)(=O)N3CC(C)CC(C)C3)cc2c1C (centres undefined)
EC50 [4]: 0.422 µM (active)
EC50 [5]: > 30 µM (not active)

C/C(Cn1cnc([N+](=O)[O-])n1)=N\NC(=O)c1cccc(F)c1
EC50 [4]: 1.39 µM (active)
EC50 [5]: > 60 µM (not active)

Brc1ccc(-c2csc(N/N=C/c3cccnc3)n2)cc1
EC50 [4]: 1.44 µM (active)
EC50 [5]: > 60 µM (not active)

COc1cc(/C=N/NC(=O)c2cc(-c3cccc(Br)c3)nc3ccccc23)cc(OC)c1O
CC50 [6]: 36 µM (active)

CN/C(=N/CCSCc1nc[nH]c1C)NC#N [CIMETIDINE]
AC50 [1]: 50.1 µM (inconclusive)
